Laboratory results: patent US4564627A, “Feed composition” (Nihon Nohyaku Co., Ltd., priority 1982, dated 1986)

How the values were obtained:
laying hens [1] = assay: Thickness of eggshell of laying hens (Test Example 2); type: in vivo
Text: (§1) As test hens, commercially available laying hens of 480 day age were used. The control group fed with a feed not containing any compound of this invention consisted of 100 laying hens, and each test group fed with a feed containing a compound of this invention consisted of 10 laying hens. The test was repeated twice. The test period was 16 weeks from Nov. 17, 1981 to Mar. 8, 1982. The first 4 weeks from the start was a preliminary observation period, during which each group was controlled so as to give the same egg production rate. As the feed, a commercially available feed for laying hens (Cp 16% or above, ME 2,800 kcal/kg or above) was used. From the 5th week, predetermined quantities of test compounds were uniformly added to this feed and the resulting blended feeds were given to test groups. Feeds and water were given ad libitum. Constant lighting was made for 14 hr a day. Egg production rate was daily recorded for each individual hen and egg weight for each test group. Feed intake quantity was obtained by calculating on every other week a difference between quantity fed and quantity left. For examining egg quality, strength of eggshell and thickness of eggshell were measured for all normal eggs laid during a period of the previous day of measurement to 3 P.M. of the measurement day. Strength of eggshell was measured by a FHK eggshell strength tester model FN-597, and thickness of eggshell by a dial thickness gauge.

laying hens [2] = assay: Strength of eggshell of laying hens (Test Example 2); type: in vivo
Text: as §1

broilers [3] = assay: Crude fat content in liver of broilers (Test Example 1); type: in vivo, "A A Fuji" broilers (chicken)
Protocol: (§2) To each group consisting of 30 "A A Fuji" broilers (15 male, 15 female), a commercially available early period broiler feed (crumble form, Cp 22%, ME 3,030 kcal/kg) was given from beginning of feeding to 4 week age, and a latter period broiler feed (mash form, Cp 18%, ME 3,030 kcal/kg) was given ad libitum from 4 week age to 10 week age. The test period was from Oct. 10, 1981 through Dec. 20, 1981. Addition of test compounds to the above feeds in predetermined concentrations was conducted from 3 week age through the completion of the test.
(§3) Five broilers at 6 week age, five broilers at 8 week age and ten broilers at 10 week age were taken out from each group and slaughtered. Immediately after slaughtering, they were cooled in water for about 2 hr and the body weight of each slaughtered broiler was measured and subsequently they were stored at 2° C. for about 20 hr. Then, in order to measure abdominal fat, mesentary fat was removed and fat adhered to from gizzard to proventriculus was collected and weighed as the weight of abdominal fat. This weight was divided by body weight to obtain abdominal fat deposit per 100 g of body weight. Further, liver fat was also collected and weighed. A liver under freeze storage was cut into slices in a total quantity of 2 to 3 g. The slices were placed in a cylindrical filter paper and weighed. Then, these slices were dried for 3 hr in a hot air drier kept at 90° C. and subsequently extracted for 17 hr with ethyl ether in a Soxhlet fat extractor. After drying the extract for 3 hr at 60° C. and weighing the residue, crude fat content in liver was calculated.

LD50 mouse (male) = details: in vivo
Text: Examples of the compounds represented by the general formula [1] according to this invention and their toxicities are shown below.

broilers [4] = assay: Abdominal fat deposit of broilers (Test Example 1); type: in vivo, "A A Fuji" broilers (chicken)
Protocol: as §2, §3

[5] = Growth of body weight of broilers (Test Example 1); type: in vivo, "A A Fuji" broilers (chicken); details: for Body weight at week age 0: week age 0 (before addition); for Body weight at week age 3: week age 3 (start of addition)
Protocol: as §2
(1) Growth of body weight
[…] All broilers were measured and an average body weight was calculated for each group.

## CC(C)OC(=O)C(C(=O)OC(C)C)=C1SCCS1 [compound 6]
Laying hens [1]; 509th day, 5 ppm in feed
  Eggshell thickness: 0.328 mm
Laying hens [1]; 509th day, 25 ppm in feed
  Eggshell thickness: 0.345 mm
Laying hens [1]; 509th day, 125 ppm in feed
  Eggshell thickness: 0.343 mm
Laying hens [1]; 509th day, 625 ppm in feed
  Eggshell thickness: 0.325 mm
Laying hens [1]; 555th day, 5 ppm in feed
  Eggshell thickness: 0.341 mm
Laying hens [1]; 555th day, 25 ppm in feed
  Eggshell thickness: 0.345 mm
Laying hens [1]; 555th day, 125 ppm in feed
  Eggshell thickness: 0.340 mm
Laying hens [1]; 555th day, 625 ppm in feed
  Eggshell thickness: 0.346 mm
Laying hens [1]; 612th day, 5 ppm in feed
  Eggshell thickness: 0.344 mm
Laying hens [1]; 612th day, 25 ppm in feed
  Eggshell thickness: 0.341 mm
Laying hens [1]; 612th day, 125 ppm in feed
  Eggshell thickness: 0.342 mm
Laying hens [1]; 612th day, 625 ppm in feed
  Eggshell thickness: 0.348 mm
Laying hens [2]; 509th day, 5 ppm in feed
  Eggshell strength: 2.40 kg
Laying hens [2]; 509th day, 25 ppm in feed
  Eggshell strength: 2.47 kg
Laying hens [2]; 509th day, 125 ppm in feed
  Eggshell strength: 2.39 kg
Laying hens [2]; 509th day, 625 ppm in feed
  Eggshell strength: 2.42 kg
Laying hens [2]; 555th day, 5 ppm in feed
  Eggshell strength: 2.75 kg
Laying hens [2]; 555th day, 25 ppm in feed
  Eggshell strength: 2.88 kg
Laying hens [2]; 555th day, 125 ppm in feed
  Eggshell strength: 2.95 kg
Laying hens [2]; 555th day, 625 ppm in feed
  Eggshell strength: 3.01 kg
Laying hens [2]; 612th day, 5 ppm in feed
  Eggshell strength: 2.74 kg
Laying hens [2]; 612th day, 25 ppm in feed
  Eggshell strength: 2.99 kg
Laying hens [2]; 612th day, 125 ppm in feed
  Eggshell strength: 3.11 kg
Laying hens [2]; 612th day, 625 ppm in feed
  Eggshell strength: 3.07 kg
Broilers [3]; 6w, 100 ppm in feed
  Crude fat content in liver: 2.23%
Broilers [3]; 6w, 200 ppm in feed
  Crude fat content in liver: 2.03%
Broilers [3]; 6w, 400 ppm in feed
  Crude fat content in liver: 2.15%
Broilers [3]; 6w, 800 ppm in feed
  Crude fat content in liver: 2.14%
Broilers [3]; 6w, 1,600 ppm in feed
  Crude fat content in liver: 2.08%
Broilers [3]; 8w, 100 ppm in feed
  Crude fat content in liver: 5.51%
Broilers [3]; 8w, 200 ppm in feed
  Crude fat content in liver: 4.97%
Broilers [3]; 8w, 400 ppm in feed
  Crude fat content in liver: 4.53%
Broilers [3]; 8w, 800 ppm in feed
  Crude fat content in liver: 4.26%
Broilers [3]; 8w, 1,600 ppm in feed
  Crude fat content in liver: 4.32%
Broilers [3]; 10w, 100 ppm in feed
  Crude fat content in liver: 5.09%
Broilers [3]; 10w, 200 ppm in feed
  Crude fat content in liver: 4.33%
Broilers [3]; 10w, 400 ppm in feed
  Crude fat content in liver: 4.26%
Broilers [3]; 10w, 800 ppm in feed
  Crude fat content in liver: 4.33%
Broilers [3]; 10w, 1,600 ppm in feed
  Crude fat content in liver: 4.32%
LD50 mouse (male)
  LD50: 1350 mg/kg
Broilers [4]; 6w, 100 ppm in feed
  Abdominal fat deposit: 3.23 g/100 g
Broilers [4]; 6w, 200 ppm in feed
  Abdominal fat deposit: 3.24 g/100 g
Broilers [4]; 6w, 400 ppm in feed
  Abdominal fat deposit: 3.08 g/100 g
Broilers [4]; 6w, 800 ppm in feed
  Abdominal fat deposit: 3.14 g/100 g
Broilers [4]; 6w, 1,600 ppm in feed
  Abdominal fat deposit: 3.04 g/100 g
Broilers [4]; 8w, 100 ppm in feed
  Abdominal fat deposit: 3.72 g/100 g
Broilers [4]; 8w, 200 ppm in feed
  Abdominal fat deposit: 3.64 g/100 g
Broilers [4]; 8w, 400 ppm in feed
  Abdominal fat deposit: 3.38 g/100 g
Broilers [4]; 8w, 800 ppm in feed
  Abdominal fat deposit: 3.35 g/100 g
Broilers [4]; 8w, 1,600 ppm in feed
  Abdominal fat deposit: 3.32 g/100 g
Broilers [4]; 10w, 100 ppm in feed
  Abdominal fat deposit: 4.18 g/100 g
Broilers [4]; 10w, 200 ppm in feed
  Abdominal fat deposit: 4.03 g/100 g
Broilers [4]; 10w, 400 ppm in feed
  Abdominal fat deposit: 3.97 g/100 g
Broilers [4]; 10w, 800 ppm in feed
  Abdominal fat deposit: 3.85 g/100 g
Broilers [4]; 10w, 1,600 ppm in feed
  Abdominal fat deposit: 3.78 g/100 g
[5]; 100 ppm in feed from 3 week age
  Body weight at week age 0: 41 g
[5]; 200 ppm in feed from 3 week age
  Body weight at week age 0: 41 g
[5]; 400 ppm in feed from 3 week age
  Body weight at week age 0: 41 g
[5]; 800 ppm in feed from 3 week age
  Body weight at week age 0: 41 g
[5]; 1,600 ppm in feed from 3 week age
  Body weight at week age 0: 41 g
[5]; 100 ppm in feed
  Body weight at week age 3: 628 g
  Body weight at week age 4: 978 g
  Body weight at week age 5: 1,326 g
  Body weight at week age 6: 1,672 g
  Body weight at week age 7: 2,602 g
  Body weight at week age 8: 2,492 g
  Body weight at week age 9: 2,880 g
  Body weight at week age 10: 3,107 g
[5]; 200 ppm in feed
  Body weight at week age 3: 623 g
  Body weight at week age 4: 983 g
  Body weight at week age 5: 1,340 g
  Body weight at week age 6: 1,662 g
  Body weight at week age 7: 2,108 g
  Body weight at week age 8: 2,487 g
  Body weight at week age 9: 2,873 g
  Body weight at week age 10: 3,112 g
[5]; 400 ppm in feed
  Body weight at week age 3: 624 g
  Body weight at week age 4: 984 g
  Body weight at week age 5: 1,338 g
  Body weight at week age 6: 1,652 g
  Body weight at week age 7: 2,112 g
  Body weight at week age 8: 2,505 g
  Body weight at week age 9: 2,865 g
  Body weight at week age 10: 3,086 g
[5]; 800 ppm in feed
  Body weight at week age 3: 622 g
  Body weight at week age 4: 981 g
  Body weight at week age 5: 1,332 g
  Body weight at week age 6: 1,657 g
  Body weight at week age 7: 2,063 g
  Body weight at week age 8: 2,501 g
  Body weight at week age 9: 2,858 g
  Body weight at week age 10: 3,024 g
[5]; 1,600 ppm in feed
  Body weight at week age 3: 624 g
  Body weight at week age 4: 980 g
  Body weight at week age 5: 1,328 g
  Body weight at week age 6: 1,663 g
  Body weight at week age 7: 2,102 g
  Body weight at week age 8: 2,483 g
  Body weight at week age 9: 2,864 g
  Body weight at week age 10: 3,033 g
